# What was measured:
# 786-0 cells = experiment: Oncological test, cell growth against 786-0; type: cell-based; conditions: FIGS. 16 and 17
# Source text: (§1) FIGS. 10 to 17 show the activity of compounds ESP—2.2, ESP—2.5 and ESP—31 according to the invention as well as the comparative examples ESP—2 and ESP—3 (Table 4) in relation to the concentration employed against various different cancer cells. […] The x-axis depicts the molar concentration of the respective compound on a logarithmical scale.
# OVCAR-5 = experiment: Oncological test, cell growth against OVCAR-5; type: cell-based, human; conditions: FIGS. 10 and 11
# Source text: as §1
# IGR-OV1 = experiment: Oncological test, cell growth against IGR-OV1; type: cell-based, human; conditions: FIGS. 12 and 13
# Source text: as §1
# HCT-15 cells = experiment: Oncological test, cell growth against HCT-15; type: cell-based, human; conditions: for cell growth (inhibition / cytotoxic effect): FIGS. 14 and 15
# Source text: as §1
# various cancer cells = experiment: Oncological tests, summary of FIGS. 10 to 17; type: cell-based; conditions: ovarian, colon and kidney cancer cells
# Source text: as §1
Structure (SMILES),melting point,cell growth (inhibition / cytotoxic effect) (786-0 cells),cell growth (inhibition / cytotoxic effect) (OVCAR-5),cell growth (inhibition / cytotoxic effect) (IGR-OV1),cell growth (inhibition / cytotoxic effect) (HCT-15 cells),also measured
"O=c1ccn([C@@H]2O[C@H](CO)[C@@H](O)[C@H]2O)c(=O)[nH]1 [ESP—3, uridine, reference compound]",–,did not show any activity at all,no activity,did not even cause a growth inhibition,–,–
CCCCCCCCCC1(CCCCCCCCC)OC2[C@@H](CO)O[C@@H](n3ccc(=O)[nH]c3=O)[C@H]2O1 (stereo partly drawn) [ESP—31],–,cytotoxic effect,cytotoxicity,vast improvement with respect to the cytotoxic activity,high cytotoxic activity,–
CCOC(=O)CC[C@]1(C)OC2[C@@H](CO)O[C@@H](n3ncc(=O)n(C/C=C(\C)CCC=C(C)CCC=C(C)C)c3=O)[C@H]2O1 (stereo partly drawn) [ESP—2.5],–,high cytotoxic effect,high cytotoxicity,improved inhibition effect,increased activity,death of the cells (HCT-15 cells; high dosage): over 50%; activity / cytotoxicity against various cancer cells (various cancer cells): particular high cytotoxicity
CCOC(=O)CC[C@@]1(C)OC2C(O1)[C@@H](COC(c1ccccc1)(c1ccccc1)c1ccc(OC)cc1)O[C@H]2n1ncc(=O)[nH]c1=O (stereo partly drawn) [ESP—2.2],–,–,inhibition of cell growth,activity of the compound could be increased,increased activity,–
"O=c1cnn([C@@H]2O[C@H](CO)[C@@H](O)[C@H]2O)c(=O)[nH]1 [ESP—2, 6-azauridine, reference compound]",–,–,no activity,slight inhibition,slight inhibition of the growth of the cells,–

# The next lines start with results.
melting point,Structure (SMILES),cell growth (inhibition / cytotoxic effect) (786-0 cells),cell growth (inhibition / cytotoxic effect) (OVCAR-5),cell growth (inhibition / cytotoxic effect) (IGR-OV1),cell growth (inhibition / cytotoxic effect) (HCT-15 cells),also measured
93 °C,"CCCCCCCCCCCCCCCC1(CCCCCCCCCCCCCCC)OC2C(CO)OC(n3ccc(=O)[nH]c3=O)C2O1 (stereo not drawn) [Compound 25d, 1-(6-Hydroxymethyl-2,2-dipentadecyl-tetrahydro-furo[3,4-d][1,3]dioxol-4-yl)-1H-pyrimidin-2,4-dione]",–,–,–,–,–
90.1 °C,"CCCCCCCCCCCCCC1(CCCCCCCCCCCCC)O[C@@H]2[C@H](O1)[C@@H](CO)O[C@H]2n1ccc(=O)[nH]c1=O [Compound 25c, 1-((3aR,4R,6R,6aR)-6-(hydroxymethyl)-2,2-ditridecyltetrahydrofuro[3,4-d][1,3]dioxol-4-yl)pyrimidin-2,4(1H,3H)-dione]",–,–,–,–,–
74 °C,"COc1ccc(C(OC[C@H]2O[C@@H](n3cnc4c(=O)n(C/C=C(\C)CCC=C(C)C)cnc43)C[C@@H]2O)(c2ccccc2)c2ccc(OC)cc2)cc1 [Compound 4a, 9-((2R,4S,5R)-5-((Bis(4-methoxyphenyl)(phenyl)methoxy)-methyl)-4-hydroxytetrahydrofuran-2-yl)-1-((E)-3,7-di-methylocta-2,6-dienyl)-1H-purin-6(9H)-one]",–,–,–,–,–
68 °C,"COc1ccc(C(OC[C@H]2O[C@@H](n3cnc4c(=O)n(C/C=C(\C)CC/C=C(\C)CCC=C(C)C)cnc43)C[C@@H]2O)(c2ccccc2)c2ccc(OC)cc2)cc1 [Compound 4b, 9-((2R,4S,5R)-5-((Bis(4-methoxyphenyl)(phenyl)methoxy)-methyl)-4-hydroxytetrahydrofuran-2-yl)-1-((2E,6E)-3,7,11-trimethyldodeca-2,6,10-trienyl)-1H-purin-6(9H)-on]",–,–,–,–,–
89.7 °C,"CCCCCCCCCCCCCCCCCC1(CCCCCCCCCCCCCCCCC)OC2C(CO)OC(n3ccc(=O)[nH]c3=O)C2O1 (stereo not drawn) [Compound 25e, 1-(2,2-Diheptadecyl-6-hydroxymethyl-tetrahydro-furo[3,4-d][1,3]dioxol-4-yl)-1H-pyrimidin-2,4-dione]",–,–,–,–,–
